Test results as given in patent US20200308144A1, “Multimeric piperidine derivatives” (Bellicum Pharmaceuticals, Inc., priority 2017, published 2020).
Like-named read-outs stand apart in the source and are kept apart here.

Legend:
[1] = Solubility in water and buffers; type: physicochemical; settings: buffer system None (unbuffered water)
Description: By “soluble” or “solubility” is meant the property of a compound to dissolve in water, buffer, or other liquid, which may be measured in terms of mg·mL^−1. […] Examples of pharmaceutically acceptable buffers include those provided in Remington: The Science and Practice of Pharmacy, 22 ed., 2013, Pharmaceutical Press, London (Allen, L. V., Jr., ed.). […] Methods for evaluating the solubility of a compound include, for example, a 96-well plate-based assay in which aqueous suspensions of the compound are vacuum-filtered and the concentration of compound is measured by UV spectrophotometry (Roy et al (2001) Drug Dev Ind Pharm 27(1):107-109).

[2] = Stability of salt forms under accelerated conditions of heat and humidity; type: physicochemical
Description: The stability of different salt forms of Compound A was assayed under accelerated conditions of heat and humidity for 7 and for 14 days. All salts were […] up to 40° C. and 75% relative humidity (RH), but appeared to degrade under severe temperature and humidity conditions of 80° C. with or without 80% relative humidity. (Table 3)

[3] = cited from earlier work
[4] = cited from earlier work; remark: listed apart in the source
[5] = test system: cells; assay: AP1903 amount needed in vitro for effective signaling of cells; type: cell-based; settings: converted with 1600 Da
Description: The fixed dose of AP1903 for injection used, for example, may be 0.4 mg/kg intravenously infused over 2 hours. The amount of AP1903 needed in vitro for effective signaling of cells is 10-100 nM (1600 Da MVV). This equates to 16-160 μg/L or ˜[…] (1.6-160 μg/kg). Doses up to 1 mg/kg were well-tolerated in the Phase 1 study of AP1903 discussed above. Therefore, 0.4 mg/kg may be a safe and effective dose of AP1903 for this Phase I study in combination with the therapeutic cells.

[6] = test system: cells; settings: cited from earlier work

Row | SMILES | Inherent pH in parenthesis [1] | Assay (%) ([2]; 25° C./60% RH, 7 D) | Assay (%) ([2]; 25° C./60% RH, 14 D) | Assay (%) ([2]; 40° C./75% RH, 7 D) | Assay (%) ([2]; 40° C./75% RH, 14 D) | Assay (%) ([2]; 80° C., 7 D) | Assay (%) ([2]; 80° C., 14 D) | Assay (%) ([2]; 80° C./80% RH, 7 D) | Assay (%) ([2]; 80° C./80% RH, 14 D) | plasma levels versus dose ([3]; 0.01-1.0 mg/kg IV over 2 hours) | plasma level as % of maximal concentration ([3]; 0.5 hours post-dose) | plasma level as % of maximal concentration ([3]; 2 hours post-dose) | plasma level as % of maximal concentration ([3]; 10 hours post-dose) | well-tolerated doses ([3]; Phase 1 study) | mean Cmax ([3]; healthy volunteers, single doses 0.01-1.0 mg/kg infused IV over 2 hours) | solubility in water [4] | amount needed in vitro for effective signaling of cells, converted [5] | amount needed in vitro for effective signaling of cells [6]
1 | CC[C@H](C(=O)N1CCCC[C@H]1C(=O)O[C@H](CCc1ccc(OC)c(OC)c1)c1cccc(OCCN(C)CCN(C)CCOc2cccc([C@@H](CCc3ccc(OC)c(OC)c3)OC(=O)[C@@H]3CCCCN3C(=O)[C@@H](CC)c3cc(OC)c(OC)c(OC)c3)c2)c1)c1cc(OC)c(OC)c(OC)c1.O=P(O)(O)O [Compound A.1] | 3.9 | 96.2% | 95.9% | 95.6% | 95.9% | 94.9% | 93.3% | 85.2% | 77.7% |  |  |  |  |  |  |  |  | 
2 | CC[C@H](C(=O)N1CCCC[C@H]1C(=O)O[C@H](CCc1ccc(OC)c(OC)c1)c1cccc(OCC(=O)NCCNC(=O)COc2cccc([C@@H](CCc3ccc(OC)c(OC)c3)OC(=O)[C@@H]3CCCCN3C(=O)[C@@H](CC)c3cc(OC)c(OC)c(OC)c3)c2)c1)c1cc(OC)c(OC)c(OC)c1 [rimiducid] |  |  |  |  |  |  |  |  |  | directly proportional to dose | approximately 18% | ~7% | ~1% | up to 1 mg/kg | 10 to 1275 ng/mL | approximately 700 pM | 16 to 160 µg/L | 10 to 100 nM
3 | CC[C@H](C(=O)N1CCCC[C@H]1C(=O)O[C@H](CCc1ccc(OC)c(OC)c1)c1cccc(OCCN(C)CCN(C)CCOc2cccc([C@@H](CCc3ccc(OC)c(OC)c3)OC(=O)[C@@H]3CCCCN3C(=O)[C@@H](CC)c3cc(OC)c(OC)c(OC)c3)c2)c1)c1cc(OC)c(OC)c(OC)c1.Cl [Compound A.2] | 2.9 | 97.3% | 96.7% | 97.2% | 96.9% | 96.3% | 94.8% | 95.6% | 94.4% |  |  |  |  |  |  |  |  | 
4 | CC[C@H](C(=O)N1CCCC[C@H]1C(=O)O[C@H](CCc1ccc(OC)c(OC)c1)c1cccc(OCCN(C)CCN(C)CCOc2cccc([C@@H](CCc3ccc(OC)c(OC)c3)OC(=O)[C@@H]3CCCCN3C(=O)[C@@H](CC)c3cc(OC)c(OC)c(OC)c3)c2)c1)c1cc(OC)c(OC)c(OC)c1.O=S(=O)(O)O [Sulphate] | 3.06 | 96.2% | 95.0% | 95.9% | 95.6% | 95.3% | 94.6% | 88.2% | 85.4% |  |  |  |  |  |  |  |  | 
5 | CC[C@H](C(=O)N1CCCC[C@H]1C(=O)O[C@H](CCc1ccc(OC)c(OC)c1)c1cccc(OCCN(C)CCN(C)CCOc2cccc([C@@H](CCc3ccc(OC)c(OC)c3)OC(=O)[C@@H]3CCCCN3C(=O)[C@@H](CC)c3cc(OC)c(OC)c(OC)c3)c2)c1)c1cc(OC)c(OC)c(OC)c1.O=S(=O)(O)c1ccccc1 | 4.3 | 92.2% | 91.7% | 92.2% | 92.2% | 91.5% | 90.6% | 91.2% | 90. % |  |  |  |  |  |  |  |  | 
6 | CC[C@H](C(=O)N1CCCC[C@H]1C(=O)O[C@H](CCc1ccc(OC)c(OC)c1)c1cccc(OCCN(C)CCN(C)CCOc2cccc([C@@H](CCc3ccc(OC)c(OC)c3)OC(=O)[C@@H]3CCCCN3C(=O)[C@@H](CC)c3cc(OC)c(OC)c(OC)c3)c2)c1)c1cc(OC)c(OC)c(OC)c1.O=C(O)/C=C/C(=O)O [Fumarate] | 3.4 | 97.5% | 97.1% | 97.2% | 96.8% | 96.6% | 95.8% | 87.5% | 81.2% |  |  |  |  |  |  |  |  | 
